Assay results from US8273775B2, “Non-steroidal brassinosteroid mimetic” (priority 2006, dated 2012).

Test system: gene expression in Col-0 seedling shoots
Test: Microarray analysis (ATH1 Affymetrix) after BL or abrasin treatment
Format: in vivo, Arabidopsis
Procedure: FIG. 14: Clustering of gene expression profiles by QT-clust analysis. Clusters illustrating the major patterns of the data sets. Points: BIK-30: 30 μM abrasin 30 min; BL-30: 1 μM brassinolide 30 min; DMSO-30: control DMSO 30 min; BIK-120: 30 μM abrasin 120 min; BL-120: 1 μM brassinolide 120 min; DMSO-120: control DMSO 120 min.
Col-0 seeds were germinated vertically on ½ MS medium for 7 days under 16 h light/8 h dark cycles. The seedlings were overlaid with liquid ½ MS medium containing 1 μM brassinolide (BL, Fuji Chemical Industries, Ltd., Toyama, Japan), 30 μM abrasin (BIK, ChemBridge Corporation) and DMSO and treated for 30 and 120 min. The shoot parts were collected for RNA isolation. All sampling points were performed in three independent experiments. RNA was extracted using RNeasy kit (Qiagene). […] total RNA per array was used to hybridise the ATH1 Affymetrix Arabidopsis arrays according to standard procedure. The overrepresentation analyses were performed using BiNGO software (Maere et al., 2005).
We performed a microarray analysis using the Arabidopsis whole genome chip (Affymetix) to determine whether abrasin activated the expression of BR-inducible genes at transcriptional level. Wild-type Col-0 seedlings were exposed to 1 μM BL, 30 μM ABRASIN and DMSO (mock-treatment) for two time points (30 min and 120 min) and the shoot parts were collected for RNA isolation. The analysis of the variance of the normalized gene expression data took in account the variability parameters affecting the expression level: type of hormone treatment, duration of treatment and the interaction between these two.

Question: Which results are given for CC(C)[C@H](C)[C@@H](O)[C@H](O)[C@@H](C)[C@H]1CC[C@H]2[C@@H]3COC(=O)[C@H]4C[C@H](O)[C@H](O)C[C@]4(C)[C@H]3CC[C@]12C [BL, brassinolide, reference compound]?
Answer: Fold-change of gene AT2G42380 (bZIP transcription factor family protein) (30 min, 265877_at, Cluster 6): 0.81; Fold-change of gene AT2G45080 (cyclin family protein) (30 min, 266124_at, Cluster 8): 0.84; Fold-change AT1G04330 expressed protein (120 min): 1.30; Fold-change AT1G05470 endonuclease/exonuclease/phosphatase family protein (120 min): 1.05; Fold-change AT1G06520 Encodes a membrane associated mitochondrial localized protein (120 min): 3.11; Fold-change AT1G06570 4-hydroxyphenylpyruvate dioxygenase (HPD) (120 min): 0.27; Fold-change AT1G10550 xyloglucan:xyloglucosyl transferase (120 min): 2.19; Fold-change AT1G12710 F-box family protein (120 min): 2.11; Fold-change AT1G12750 rhomboid family protein (120 min): 0.78; Fold-change AT1G14130 2-oxoglutarate-dependent dioxygenase (120 min): 1.31; Fold-change AT1G14700 purple acid phosphatase (120 min): 0.59; Fold-change AT1G16640 transcriptional factor B3 family protein (120 min): 0.95; Fold-change AT1G17230 leucine-rich repeat family protein (120 min): 0.38; Fold-change AT1G18020; AT1G17990 [AT1G18020, 12-oxophytodienoate reductase, (120 min): 0.50; Fold-change AT1G19320 pathogenesis-related thaumatin family protein (120 min): 0.38; Fold-change AT1G20350 mitochondrial import inner membrane translocase subunit (120 min): 1.08; Fold-change AT1G21050 expressed protein (120 min): 0.22; Fold-change AT1G21760 F-box family protein (120 min): 0.60; Fold-change AT1G22360 UDP-glucoronosyl/UDP-glucosyl transferase family protein (120 min): 0.29; Fold-change AT1G23080 auxin efflux carrier protein (PIN7) (120 min): 0.48; Fold-change AT1G26800 zinc finger (C3HC4-type RING finger) family protein, (120 min): 6.09; Fold-change AT1G27730 zinc finger (C2H2 type) family protein (120 min): 0.71; Fold-change AT1G28130 encodes an IAA-amido synthase (120 min): 0.28; Fold-change AT1G28190 expressed protein (120 min): 0.58; Fold-change AT1G28480 glutaredoxin family protein (120 min): 1.38; Fold-change AT1G31040 zinc-binding protein-related (120 min): 1.12; Fold-change AT1G31310 hydroxyproline-rich glycoprotein family protein (120 min): 0.74; Fold-change AT1G31770 ABC transporter family protein (120 min): 0.64; Fold-change AT1G32190 expressed protein (120 min): 0.11; Fold-change AT1G32690 expressed protein (120 min): 0.48; Fold-change AT1G36940 expressed protein (120 min): 0.38; Fold-change AT1G49780 U-box domain-containing protein (120 min): 0.28; Fold-change AT1G53870; AT1G53890 [AT1G53870, expressed protein (120 min): 0.77; Fold-change AT1G54050 17.4 kDa class III heat shock protein (HSP17.4-CIII) (120 min): 3.58; Fold-change AT1G54200 expressed protein (120 min): 2.06; Fold-change AT1G55920 serine O-acetyltransferase (120 min): 1.01; Fold-change AT1G57560 myb family transcription factor (MYB50) (120 min): 2.45; Fold-change AT1G59590 expressed protein (120 min): 1.03; Fold-change AT1G59660 nucleoporin family proteinmily (120 min): 3.15; Fold-change AT1G62300 WRKY family transcription factor (120 min): 0.21; Fold-change AT1G63050 membrane bound O-acyl transferase (MBOAT) family protein (120 min): 0.40; Fold-change AT1G66160 U-box domain-containing protein, (120 min): 1.22; Fold-change AT1G66890 expressed protein (120 min): 0.34; Fold-change AT1G68330 expressed protein (120 min): 1.74; Fold-change AT1G68810 basic helix-loop-helix (bHLH) family protein (120 min): 0.83; Fold-change AT1G69160 expressed protein (120 min): 0.59; Fold-change AT1G70990 proline-rich family protein (120 min): 2.22; Fold-change AT1G71030 Encodes a putative myb family transcription factor (120 min): 0.13; Fold-change AT1G72060 expressed protein (120 min): 0.92; Fold-change AT1G72180 leucine-rich repeat transmembrane protein kinase (120 min): 0.22; Fold-change AT1G72800 nuM1-related, contains (120 min): 2.85; Fold-change AT1G75270 dehydroascorbate reductase (120 min): 1.66; Fold-change AT1G75500 nodulin MtN21 family protein (120 min): 0.56; Fold-change AT1G76240 expressed protein, (120 min): 0.16; Fold-change AT1G76410 zinc finger (C3HC4-type RING finger) (120 min): 0.43; Fold-change AT1G79110 expressed protein (120 min): 0.77; Fold-change AT1G79630 protein phosphatase 2C family protein (120 min): 0.37; Fold-change AT1G80440 kelch repeat-containing F-box family protein (120 min): 2.93; Fold-change AT2G01300 expressed protein (120 min): 4.83; Fold-change AT2G01990 expressed protein, (120 min): 1.06; Fold-change AT2G04240 zinc finger (C3HC4-type RING finger) family protein (120 min): 2.81; Fold-change AT2G05540 glycine-rich protein (120 min): 0.46; Fold-change AT2G12290; AT4G19700 [AT2G12290, expressed protein]; [AT4G19700, expressed protein] (120 min): 0.55; Fold-change AT2G18010 auxin-responsive family protein (SAUR10) (120 min): 9.13; Fold-change AT2G19800 expressed protein (120 min): 1.78; Fold-change AT2G22860 phytosulfokines 2 (PSK2) (120 min): 0.44; Fold-change AT2G23180 cytochrome P450, putative (120 min): 0.42; Fold-change AT2G23320 WRKY family transcription factor (120 min): 0.50; Fold-change AT2G26530 expressed protein (120 min): 0.86; Fold-change AT2G26710 cytochrome p450 family (BAS1) (120 min): 5.42; Fold-change AT2G28510 Dof-type zinc finger domain-containing protein (120 min): 0.51; Fold-change AT2G29340 short-chain dehydrogenase/reductase (SDR) family protein (120 min): 1.29; Fold-change AT2G29990 pyridine nucleotide-disulphide oxidoreductase family protein (120 min): 0.48; Fold-change AT2G30070 potassium transporter (KUP1) (120 min): 0.38; Fold-change AT2G31230 encodes a member of the ERF (ethylene response factor) (120 min): 2.74; Fold-change AT2G34650 protein kinase PINOID (PID) (120 min): 3.26; Fold-change AT2G36220 expressed protein (120 min): 2.62; Fold-change AT2G37590 Dof-type zinc finger domain-containing protein (120 min): 1.19; Fold-change AT2G38470 WRKY family transcription factor (120 min): 0.57; Fold-change AT2G39710 aspartyl protease family protein (120 min): 1.00; Fold-change AT2G40340; AT2G40350 [AT2G40340, encodes a member of the DREB subfamily A-2 of ERF/AP2 (120 min): 1.68; Fold-change AT2G41250 haloacid dehalogenase-like hydrolase family protein (120 min): 0.44; Fold-change AT2G41640 expressed protein (120 min): 1.43; Fold-change AT2G42280 basic helix-loop-helix (bHLH) family protein (120 min): 0.41; Fold-change AT2G43060 expressed protein, similar to cDNA bHLH transcription factor (120 min): 0.36; Fold-change AT2G43280 far-red impaired responsive family protein (120 min): 0.51; Fold-change AT2G43290 calmodulin-like protein (MSS3) (120 min): 2.99; Fold-change AT2G44130 kelch repeat-containing F-box family protein (120 min): 6.30; Fold-change AT2G44500 expressed protein (120 min): 2.06; Fold-change AT2G45210 auxin-responsive protein-related (120 min): 0.21; Fold-change AT2G45680 TCP family transcription factor (120 min): 0.82; Fold-change AT2G46225 Encodes a subunit of the WAVE complex (120 min): 0.47; Fold-change AT2G47440 DNAJ heat shock N-terminal domain-containing protein (120 min): 2.23; Fold-change AT3G04210 disease resistance protein (TIR-NBS class), putative, (120 min): 1.00; Fold-change AT3G09920 phosphatidylinositol-4-phosphate 5-kinase family protein (120 min): 0.42; Fold-change AT3G12920 expressed protein (120 min): 0.41; Fold-change AT3G13040 myb family transcription factor (120 min): 0.54; Fold-change AT3G13510 expressed protein (120 min): 0.83; Fold-change AT3G13980 expressed protein (120 min): 0.45; Fold-change AT3G14370 protein kinase family protein (120 min): 3.50; Fold-change AT3G14560 expressed protein (120 min): 0.50; Fold-change AT3G16570 rapid alkalinization factor (RALF) family protein (120 min): 0.87; Fold-change AT3G17860 expressed protein (120 min): 0.74; Fold-change AT3G18830 polyol/cyclitol/monosaccharide-H+-symporte (120 min): 1.14; Fold-change AT3G19380 U-box domain-containing protein (120 min): 0.27; Fold-change AT3G23030 auxin-responsive protein/indoleacetic acid-induced protein 2 (IAA2) (120 min): 0.39; Fold-change AT3G23550 MATE efflux family protein (120 min): 0.31; Fold-change AT3G25710 basic helix-loop-helix (bHLH) family protein (120 min): 0.53; Fold-change AT3G25900 homocysteine S-methyltransferase 1 (HMT-1) (120 min): 2.22; Fold-change AT3G26910 hydroxyproline-rich glycoprotein family protein (120 min): 0.60; Fold-change AT3G30180 cytochrome p450 enzyme (120 min): 0.07; Fold-change AT3G46880 expressed protein, (120 min): 0.60; Fold-change AT3G47800 aldose 1-epimerase family protein (120 min): 0.26; Fold-change AT3G48970 copper-binding family protein (120 min): 0.59; Fold-change AT3G49810 U-box domain-containing protein (120 min): 0.56; Fold-change AT3G50650 scarecrow-like transcription factor 7 (SCL7) (120 min): 1.82; Fold-change AT3G50660 steroid 22-alpha-hydroxylase (CYP90B1) (DWF4) (120 min): 0.02; Fold-change AT3G50750 brassinosteroid signalling positive regulator-related (BEH1) (120 min): 0.35; Fold-change AT3G52490 heat shock protein-related (120 min): 1.08; Fold-change AT3G53810 lectin protein kinase (120 min): 1.19; Fold-change AT3G54950 patatin-related, (120 min): 0.39; Fold-change AT3G55120 chalcone-flavanone isomerase (120 min): 0.68; Fold-change AT3G55150 exocyst subunit EXO70 family protein (120 min): 0.13; Fold-change AT3G55840 expressed protein (120 min): 7.41; Fold-change AT3G61460 zinc finger (C3HC4-type RING finger) family protein (BRH1) (120 min): 0.43; Fold-change AT3G63300 expressed protein (120 min): 1.13; Fold-change AT4G01680 myb family transcription factor (MYB55) (120 min): 0.14; Fold-change AT4G02410 lectin protein kinase family protein (120 min): 0.59; Fold-change AT4G08040 1-aminocyclopropane-1-carboxylate synthase, putative (120 min): 0.02; Fold-change AT4G09460 myb family transcription factor (120 min): 2.76; Fold-change AT4G12390 invertase/pectin methylesterase inhibitor family protein (120 min): 0.66; Fold-change AT4G12410 auxin-responsive family protein (120 min): 0.44; Fold-change AT4G14130 xyloglucan:xyloglucosyl transferase (120 min): 0.08; Fold-change AT4G15975 zinc finger (C3HC4-type RING finger) family protein (120 min): 1.05; Fold-change AT4G16146 expressed protein (120 min): 0.55; Fold-change AT4G16563 aspartyl protease family protein (120 min): 2.89; Fold-change AT4G16670 expressed protein (120 min): 0.35
